Source: patent US8193377B2, “(−)-epigallocatechin gallate derivatives for inhibiting proteasome” (The Hong Kong Polytechnic University, priority 2004, dated 2012)
Like-named read-outs stand apart in the source and are kept apart here.

Tests used:
Jurkat T cells = assay: Trypan blue cell death assay in Jurkat T cells; type: cell-based, human; conditions: 10 μM, 24 h
LNCaP cells [1] = assay: Apoptotic morphological changes, phase contrast; type: cell-based, human; conditions: 25 μM, 24 h
[2] = tested on: phosphorylated Akt (p-Akt); assay: Western blot for phosphorylated Akt in Jurkat T cells; type: cell-based, human; conditions: 25 μM, 24 h
Description: (−)-EGCG and 1 were incubated with Jurkat T cells for 24 h at 5, 10 and 25 μM, followed by Western blot analysis using a specific antibody to phosphorylated Akt (FIG. 7). […] Actin was used as a loading control.

[3] = target: T1, proteasomal chymotrypsin-like activity in Jurkat T cells (Homo sapiens, UniProt P28074); assay: Proteasomal chymotrypsin-like activity in intact Jurkat T cells / their lysates; type: cell-based; conditions: 24 h, Jurkat T
T1 construct: measurement of the proteasomal chymotrypsin-like activity in the prepared lysates; endogenous in cells; host or cells: Jurkat T cells (human leukemia)
T1 sequence (P28074 60-263): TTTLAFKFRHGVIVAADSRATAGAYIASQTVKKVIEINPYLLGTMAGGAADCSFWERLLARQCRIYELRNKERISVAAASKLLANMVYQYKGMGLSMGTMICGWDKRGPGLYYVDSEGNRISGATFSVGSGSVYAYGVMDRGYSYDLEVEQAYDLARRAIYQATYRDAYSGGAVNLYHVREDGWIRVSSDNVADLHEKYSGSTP
Description: VA-13 or WI-38 cells were grown in 24 well plates (2 ml/well) to 70-80% confluency, followed by 24 h treatment with […] (−)-EGCG, 2, or 2a. […] Suc-Leu-Leu-Val-Tyr-AMC substrate was then added for 2.5 h at 37° C. and the chyrnotrypsin-like activity was measured as described above. Alternatively, cells were treated with each compound at 25 μM for 4 or 24 h, and harvested and lysed. Suc-Leu-Leu-Val-Tyr-AMC (40 μM) was then incubated with the prepared cell lysates for 2.5 h and the chymotrypsin-like activity was measured as described above.
If 1 converts to (−)-EGCG inside the cells, proteasome inhibition in vivo should be detected. To examine this possibility, human Jurkat cells was treated with 25 μM of 1 or (−)-EGCG for 12 or 24 h, followed by measurement of proteasome activity by using a chymotrypsin-like specific fluorogenic substrate in intact cells (FIG. 6a) or Western blot for ubiquinated proteins (FIG. 6b). […] To analyze the intracellular level of polyubiquitinated proteins, cells were lysed after 12 hours incubation and subjected to Western blotting. […] It is possible that the amount of EGCG generated from 1, and thus its biological activity inside the cells depends on a combination of factors: the relative permeability of 1 into the cells, the amount of esterase enzymes and the amount of anti-oxidants that may be present in the cells at any time.
To determine whether the unprotected and protected polyphenol analogs could inhibit the proteasomal activity in intact cells, leukemia Jurkat T cells were treated with each compound at 25 μM for 4 and 24 h, followed by collection of cell pellets and measurement of the proteasomal chymotrypsin-like activity in the prepared lysates.

YT cells = assay: Western blot in non-transformed natural killer YT cells compared with Jurkat T cells; type: cell-based, human; conditions: 25 μM, 24 h
[4] = rats given 56 mg orally; cited from earlier work
[5] = Stability test in RPMI 1640 culture medium, HPLC; conditions: 0.1 mM in RPMI, 37° C., pH around 8
Description: The stability of 1 with (−)-EGCG in a culture medium (RMPI) is compared, which mimics the body fluid with a pH value around 8. (−)-EGCG or 1 at 0.1 mM was incubated in 1 mL RMPI at 37° C. at indicated times. At different time points, the medium was analyzed by HPLC for the amount of tested compound remaining.

[6] = target: T2, purified rabbit 20s proteasome (Oryctolagus cuniculus, UniProt G1T4Q9); assay: Inhibition of chymotrypsin-like activity of purified 20S proteasome; type: biochemical
T2 construct: purchased Boston Biochem (Cambridge, Mass.)
T2 sequence (G1T4Q9 1-263): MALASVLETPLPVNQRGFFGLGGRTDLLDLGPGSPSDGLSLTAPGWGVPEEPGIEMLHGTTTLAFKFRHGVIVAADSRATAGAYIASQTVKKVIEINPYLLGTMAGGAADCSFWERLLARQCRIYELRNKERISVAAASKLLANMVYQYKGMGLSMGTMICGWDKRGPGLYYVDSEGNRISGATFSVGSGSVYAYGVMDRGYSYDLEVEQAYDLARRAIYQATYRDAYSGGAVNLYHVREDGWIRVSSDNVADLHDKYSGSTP
Description: Measurement of the chyrnotrypsin-like activity of the 20s proteasome was performed by incubating 0.5 μg of purified rabbit 20s proteasome with 40 μM fluorogenic peptide substrate, Suc-Leu-Leu-Val-Tyr-AMC, with or without various concentrations of natural and synthetic tea polyphenols as described previously (Nam S et. al.).
In order to test this hypothesis, proteasome activity was tested both in vitro and in intact Jurkat T cells with either 1 or (−)-EGCG (as a positive control). First, 1 and commercial (−)-EGCG were dissolved in DMSO and their effects on the chymotrypsin-like activity of purified 20S proteasomes were measured. […] In contrast, (−)-EGCG at 10 μM inhibited 80-90% of the proteasomal chymotrypsin-like activity. Therefore, as predicted, 1 outside of a cellular system is not a proteasome inhibitor.
Up to 25 μM of all protected and unprotected compounds were incubated with a purified 20s proteasome and a fluorogenic substrate for chyrnotrypsin activity for 30 min. The half-maximal inhibitory concentration or IC50 was then determined. […] This is consistent with the results above.

LNCaP cells [7] = assay: Soft agar colony formation assay; type: cell-based, human; conditions: 25 μM once at plating, 21 days
VA-13 cells = assay: Nuclear staining (Hoechst) for apoptotic morphology, VA-13; type: cell-based, human; conditions: 25 μM
Description: After each drug treatment, both detached and attached VA-13 and WI-38 cells were stained Hoechst 33342 to assess for apoptosis. Briefly, cells were washed 2× in PBS, fixed for 1 h with 70% ethanol at 4° C., washed 3× in PBS, and stained with […] Hoechst for 30 min in the dark at room temperature. Detached cells were plated on a slide and attached cells were visualized on the plate with a fluorescent microscope at 10× or 40× resolution (Zeiss, Germany). Digital Scientific obtained images with AxioVision 4.1 and adjusted using Adobe Photoshop 6.0.
Next, apoptotic nuclear morphology is examined after treatment with natural (−)-EGCG, 2, and 2a (FIG. 12B). […] A comparison among all the protected analogs was then performed using 25 μM for 24 h. […] All of the protected analogs induced apoptosis in transformed (VA-13), but not normal (WI-38) cells (FIGS. 12B and 12C).

[8] = target: 20S prokaryotic proteasome (UniProt Q9P992); assay: Table 2: effects of tea polyphenols on 20S prokaryotic proteasome activities; type: biochemical; conditions: Table 2, This work
Description: To further examine the effects of B-ring —OH group deletion on proteasome-inhibitory and cell death-inducing abilities, we synthesized several novel EGCG analogs with eliminated —OH groups on the B-ring as well as their putative prodrugs, the peracetate-protected counterparts. By using a purified 20S proteasome and a chymotrypsin-like fluorogenic substrate, the proteasome-inhibitory effects of the following unprotected polyphenol analogs are determined: […]

[9] = tested on: caspase-3 activity in Jurkat T cells; assay: Induction of caspase-3 activity (Ac-DEVD-AMC) in Jurkat T cells; type: cell-based, human; conditions: 25 μM, 4 h
Description: Cells were treated with each compound at 25 μM for 4 or 24 h, and then harvested and lysed. Ac-DEVD-AMC (40 μM) was added to the cell lysates for 2.5 h and the caspase-3 activity.
To determine if the cell death observed (FIG. 16) was due to the induction of apoptosis, a similar experiment was performed in Jurkat T cells, followed by measurement of caspase-3 activation and PARP cleavage.

[10] = Suc-Leu-Leu-Val-Tyr-AMC, 2 h incubation, Table 1, read-out: IC50 (μM), unprotected

20S prokaryotic proteasome, sequence (Q9P992 whole entry): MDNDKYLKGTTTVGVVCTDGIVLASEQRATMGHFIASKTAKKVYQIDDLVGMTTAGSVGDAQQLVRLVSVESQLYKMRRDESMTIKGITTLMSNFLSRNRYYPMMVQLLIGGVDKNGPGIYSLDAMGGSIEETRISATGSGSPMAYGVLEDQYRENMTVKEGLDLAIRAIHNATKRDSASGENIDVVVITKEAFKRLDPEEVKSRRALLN

SMILES	cell death (Jurkat T cells) [%]	apoptotic morphological changes (LNCaP cells [1])	reduction of p-Akt level (densitometry) [2] [%]	inhibition at 25 µM ([3]; Jurkat, read-out: inhibition of proteasome activity in intact cells) [%]	apoptosis (PARP cleavage), Jurkat T versus YT cells (YT cells)	fraction of (−)-EGCG absorbed [4] [%]	time within which compound degraded in culture medium [5] [min]	inhibition at 10 µM ([6]; 10 μM, purified 20S proteasome, read-out: inhibition of proteasomal chymotrypsin-like activity) [%]	IC50 [6, 10] [µM]	IC50 ([6]; up to 25 μM, 30 min incubation, read-out: IC50) [µM]	colony formation in soft agar (LNCaP cells [7])	apoptotic nuclear morphology (VA-13 cells; 24 h)	apoptotic nuclear morphology (VA-13 cells; 36 h)	IC50 [8] [µM]	increase in caspase-3 activity [9] [fold]	inhibition of chymotrypsin-like activity in lysates of treated cells ([3]; 25 μM) [%]
O=C(O[C@@H]1Cc2c(O)cc(O)cc2O[C@@H]1c1cc(O)c(O)c(O)c1)c1cc(O)c(O)c(O)c1 [(−)-EGCG, (−)-epigallocatechin-3-gallate, reference compound]	5	enlarged, flattened cells	32	31	only Jurkat cells underwent apoptosis	0.012	≤ 20	80 to 90	0.3	0.2	significant decrease in colony formation	little or no apoptosis	did initiate apoptosis	0.3	–	–
O=C(O[C@@H]1Cc2c(O)cc(O)cc2O[C@@H]1c1ccc(O)cc1)c1cc(O)c(O)c(O)c1 [Compound 6, (−)-(2R,3R)-5,7-dihydroxy-2-(4-hydroxyphenyl)chroman-3-yl 3,4,5-trihydroxybenzoate]	–	–	–	–	–	–	–	–	2.69	–	–	–	–	2.69	4	30
